According to patent US20090209019A1, “Bioartificial Renal Tubule” (TOKAI UNIVERSITY EDUCATIONAL SYSTEM, priority 2006, published 2009):
Like-named read-outs stand apart in the source and are kept apart here. Marks after values point to notes of the source that are not given here.

How the values were obtained:
[1] = tested on: Madin-Darby canine kidney (MDCK) cells; details: cells lacking contact inhibition by action of HGF; cited from earlier work
LLC-PK1 cells [2] = details: 1% DMSO, DMEM-HG, 0 day to third day
Method: On each 6-well plate, 5×10^5 LLC-PK1 cells were seeded. […] Furthermore, two groups of the cells cultured in (4) a DMEM-HG medium and (5) a DMEM-HG medium containing 1% DMSO were checked. The cells on 0 day, the first day, the second day, and the third day after seeding were colored with trypan blue and then measured for number.

LLC-PK1 cells [3] = details: 50 μM U0126 and 1% DMSO in DMEM-HG, 0 day to sixth day
Method: On each transwell filter unit, 2×10^6 Lewis-lung cancer porcine kidney (LLC-PK1) cells, which were cryopreserved porcine proximal renal tubular epithelial cell lines, were seeded. […] The LLC-PK1 cells on 0 day, the first day, the second day, the third day, and the sixth day after seeding were colored with trypan blue and then measured for number for each group. The LLC-PK1 cells were gently washed with a sterilized PBS solution containing no magnesium or calcium and were then trypsin-treated with 1 ml of a trypsin-EDTA solution at 37° C. for 15 minutes. The treated cells (1 ml) were added to 4 ml of DMEM, were colored with trypan blue, and were then measured for number with a hemocytometer. Measurement was performed three times for each group.

MEN-1 and MEK-2 = details: cited from earlier work
LLC-PK1 cells [4] = details: DMEM medium containing 50 μg/ml U0126 for two weeks
Excerpt: In both groups, the medium was circulated outside the hollow fibers of the module in a closed system. […] On the fourth day after culture, three of the modules of each group were fixed with glutaraldehyde and were then observed in vertical cross section by scanning electron microscopy (SEM).

AP-1 transactivation = details: cited from earlier work
LLC-PK1 cells [5] = tested on: LLC-PK1 cells
Method: In lumens of hollow fibers made of an ethylene-vinyl alcohol (EVAL) copolymer, which forms membranes placed in mini-modules (a membrane area of 65 cm^2), 2×10^8 […] (LLC-PK1) cells, which were porcine proximal renal tubular epithelial cell lines, were seeded. The cells were cultured in such a manner that a DMEM-HG medium was circulated inside and outside the hollow fibers at a rate of 0.25 ml/min. In this operation, the transmembrane pressure was maintained at zero. […] The leakage of urea nitrogen, the leakage of creatinine, the amount of reabsorbed glucose, and the amount of reabsorbed Na^+ were measured for 24 hours.
Method of measuring absorption and leakage: the absorption and leakage are calculated using the following formula:
Absorption rate (leaking rate)=(C0×V0−CI×(VI−VR))/C2V2
wherein C0 represents the concentration of a substance in a discharged external solution, V0 represents the volume of the discharged external solution, CI represents the concentration of the substance in a fed external solution, VI represents the volume of the fed external solution, VR represents the volume of the external solution remaining outside the hollow fibers at the end of an experiment, C2 represents the concentration of the substance in a fed internal solution, and V2 represents the volume of the fed internal solution.

[6] = 50 μM U0126, days 3-4, mean ± SEM, n = 4

Method for ERK1/2: In each of 6-well plates, 5×10^5 LLC-PK1 cells were seeded. The cells were divided into three groups on the following day (0 day). […] Then the media (D) and (U) were replaced with a DMEM-HG medium. The cells of each group were further cultured for three days. The cells were subjected to Western blot analysis for ERK1/2 on 0 day, the first day, the second day, the third day, and the sixth day.
The cultured LLC-PK1 cells were used in the form of a cytolytic solution for Western blot analysis. The sampled cells of each group were rinsed with ice-chilled PBS and were then centrifuged at 4° C. for five minutes at 1500 rpm. The centrifugate was collected and then maintained at −80° C.
Proteins were taken from 50 μL of each of ice-chilled cytolytic solutions containing 20 mM Tris-HCl (pH 7.5), 150 mM NaCl, 1 mM Na2EDTA, 1 mM EGTA, 1% Triton, 2.5 mM sodium pyrophosphate, 1 mM β-glycerophosphate, 1 mM Na3VO4 (sodium orthovanadate), and 1 μg/ml leupeptin. The proteins were centrifuged at 4° C. for 15 minutes at 15000×g, whereby soluble proteins were extracted. The protein concentration of each cytolytic solution was measured with a protein assay kit (Protein Assay Rapid Kit; Wako, Osaka, Japan). […] Proteins (20 μg) in each LLC-PK1 cytolytic solution were analyzed with SDS-PAGE (polyacrylamide gel electrophoresis) using a 12.5% polyacrylamide gel (e-PAGEL; ATTO, Tokyo, Japan). […]

| Compound | contact inhibition of MDCK cells [1] | change in number of LLC-PK1 cells (LLC-PK1 cells [2]; 10 μM) | change in number of LLC-PK1 cells (LLC-PK1 cells [2]; 30 μM) | change in number of LLC-PK1 cells (LLC-PK1 cells [2]; 50 μM) | change in number of LLC-PK1 cells (LLC-PK1 cells [3]) | inhibition of MEK-1 and MEK-2 (MEN-1 and MEK-2) | maintenance of confluent monolayer in hollow fibers (SEM), FIG. 5 legend (LLC-PK1 cells [4]) | AP-1 transactivation (AP-1 transactivation) | activated ERK1/2 (ERK1/2; 50 μM U0126 and 1% DMSO, first, second and third day) | activated ERK1/2 after replacing the medium with U0126-free DMEM-HG (ERK1/2; sixth day, three days after removal of U0126) | amount of reabsorbed Na+ compared with control group (LLC-PK1 cells [5]; 50 μM U0126) | amount of reabsorbed glucose compared with control group (LLC-PK1 cells [5]; 50 μM U0126) | leakage of creatinine (Cr) compared with control group (LLC-PK1 cells [5]; 50 μM U0126) | leakage of urea nitrogen (UN) compared with control group (LLC-PK1 cells [5]; 50 μM U0126) | Leakage Cr (LLC-PK1 cells [5]; [6]) [%] | Leakage UN (LLC-PK1 cells [5]; [6]) | Reabsorption Glucose (LLC-PK1 cells [5]; [6]) [mg/day] | Reabsorption Na+ (LLC-PK1 cells [5]; [6]) |
| --- | --- | --- | --- | --- | --- | --- | --- | --- | --- | --- | --- | --- | --- | --- | --- | --- | --- | --- |
| COc1cccc(-c2cc(=O)c3ccccc3o2)c1N [PD-98059] | restoring the contact inhibition |  |  |  |  |  |  |  |  |  |  |  |  |  |  |  |  |  |
| N#CC(=C(N)Sc1ccccc1N)C(C#N)=C(N)Sc1ccccc1N [U0126, 1,4-diamino-2,3-dicyano-1,4-bis[2-aminophenylthio]butadiene] | restoring the contact inhibition | not sufficiently prevented from increasing in number | clearly prevented from proliferating | clearly prevented from proliferating | prevented from significantly increasing in number | direct inhibition | confluent monolayers are substantially maintained | suppressor of AP-1 transactivation | suppressed | Activated ERK1/2 is expressed | significantly greater | greater than that in the control group, though there is no significant difference | less than that in the control group, though there is no significant difference | significantly less | 3.3 ± 0.5 | 3.6 ± 0.7^b % | 63.9 ± 19.7 | 1.26 ± 0.10^b mEq/day |
